We go through three compounds from article PMC11284788, “NN1213 – A Potent, Long-Acting, and Selective Analog of Human Amylin” (Journal of Medicinal Chemistry, 2024).

Where two headings read alike, the source gives them in different places. Numbered stars: 1 amine (or outer) side, 2 acyl side, 3 side chain; on linkers, the order of the positions; unused ones are H or OH. Bridge positions count the residues as written; N and C are the ends. Side chains are listed from the residue outwards. Peptide text beside a SMILES is read from it. * marks the point of attachment. C20 diacid = O=C(O)CCCCCCCCCCCCCCCCCCC(=O)*; γGlu = O=C(O)[C@H](CCC(=O)[*:2])N[*:1]

The target in experiment [1] is T1, rCTR (Rattus norvegicus, UniProt P32214).
T1 construct: expressed in transfected cells; host or cells: BHK tk-ts 13, transient (FuGENE 6)
T1 sequence (P32214 25-479 isoform P32214-2 limits assumed): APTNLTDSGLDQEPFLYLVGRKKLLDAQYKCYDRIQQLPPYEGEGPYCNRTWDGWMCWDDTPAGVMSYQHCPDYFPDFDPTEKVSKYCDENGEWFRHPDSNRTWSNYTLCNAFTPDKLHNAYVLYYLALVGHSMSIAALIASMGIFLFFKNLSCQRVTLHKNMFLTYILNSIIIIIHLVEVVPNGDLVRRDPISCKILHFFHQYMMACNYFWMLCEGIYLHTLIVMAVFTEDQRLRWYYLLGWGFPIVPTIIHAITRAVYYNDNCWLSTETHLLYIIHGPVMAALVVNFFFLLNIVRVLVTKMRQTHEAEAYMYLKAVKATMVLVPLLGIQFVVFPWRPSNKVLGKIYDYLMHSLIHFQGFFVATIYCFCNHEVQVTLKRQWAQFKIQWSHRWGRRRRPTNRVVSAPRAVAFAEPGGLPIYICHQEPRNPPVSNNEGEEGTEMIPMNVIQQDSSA
Description: scintillation proximity binding assay, rCTR membranes. The procedure: (§1) The apparent binding affinities were determined using a scintillation proximity assay with beads from PerkinElmer and cell membranes containing the AMY3R or CTRs. […] Membranes were harvested and membranes were prepared and kept at −80 °C until use. The assay was performed in a 384-well Optiplate (PerkinElmer). Membranes were mixed with scintillation proximity assay beads in a 1:1 ratio. […] Samples were analyzed on a TopCounter (Packard). The IC50 values were calculated using GraphPad Prism. See Supporting Information S7: SAR Screening Assay Methods (Binding Assays (Human and Rat)) for more information.
(§2) Binding Assays (Human and Rat). Brief descriptions of the methods used to determine binding affinities for SAR analysis are described below. Curves and IC50 values were plotted and calculated in GraphPad Prism using nonlinear regression (one site binding competition analysis), with pIC50 values […]
(§3) values were used to calculate the binding affinity ratios in order to express the selectivity of compounds for the AMY3R versus the CTR.
(§4) CTR Binding Assay. The binding assay was performed using scintillation proximity assay (SPA) beads (RPNQ0001) from PerkinElmer and cell membranes containing either the hCTR or rCTR. BHK […]
(§5) Membranes were prepared in the following way: the cells were rinsed with PBS and incubated with Versene for approximately 5 min before harvesting. The cells were flushed with PBS and the cell-suspension was centrifuged for 5 min at 1000 rpm. Cells were homogenized (Ultra Turrax) in a buffer […]
(§6) containing 20 mM Na-HEPES and 0.1 mM EDTA (pH 7.4, buffer 2). The resulting pellet was re-suspended in buffer 2 and protein concentration was measured (BCA protein assay, Pierce). The homogenate was kept cold during the whole procedure. The membranes were stored at –80 °C until […]
(§7) The binding assay was performed in a 384-well Optiplate (PerkinElmer) in a total volume of 40 μL.
(§8) Membranes were mixed with SPA beads in a 1:1 ratio. […]
(§9) mg/well. Test compounds were dissolved in DMSO and further diluted in assay buffer (50 mM HEPES, pH 7.4, 1 mM CaCl2, 5 mM MgCl2, 0.1% ovalbumin, and 0.02% Tween-20).
(§10) Calcitonin (NEX422 PerkinElmer) was dissolved in assay buffer and added to the Optiplate at a final […]
(§11) prior to centrifugation (1500 rpm, 10 min). Samples were analyzed on TopCounter (Packard).
On the technique in general: In a scintillation proximity assay essentially only radioactivity close to the scintillant gives light.

Experiment [2] concerns the target T2, hCTR (Homo sapiens, UniProt P30988).
T2 sequence (P30988 25-474): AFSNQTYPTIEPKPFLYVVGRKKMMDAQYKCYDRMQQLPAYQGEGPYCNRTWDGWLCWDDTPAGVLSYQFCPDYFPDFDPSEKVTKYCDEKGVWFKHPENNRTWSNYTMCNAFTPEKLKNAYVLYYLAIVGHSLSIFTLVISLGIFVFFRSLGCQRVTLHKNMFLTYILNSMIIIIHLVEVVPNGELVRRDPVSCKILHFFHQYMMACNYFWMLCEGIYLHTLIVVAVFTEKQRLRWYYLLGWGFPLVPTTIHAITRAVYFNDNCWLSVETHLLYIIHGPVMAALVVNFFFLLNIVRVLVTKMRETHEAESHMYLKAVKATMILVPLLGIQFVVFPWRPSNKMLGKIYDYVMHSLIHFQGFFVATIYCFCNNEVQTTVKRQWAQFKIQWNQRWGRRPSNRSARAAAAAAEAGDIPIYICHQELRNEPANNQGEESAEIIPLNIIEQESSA
Description: cAMP-responsive element luciferase reporter assay, human CTR. The format is cell-based. To be noted: luciferase (human receptor assay). A general note: Reporter assays use an easily measured gene product as a stand-in for the process of interest.

The target in experiment [3] is T3, hAMY3R (Homo sapiens, UniProt O60896+P30988).
T3 sequence (P30988 25-474): T2 sequence (P30988 25-474)
T3 sequence (O60896 24-148 partner): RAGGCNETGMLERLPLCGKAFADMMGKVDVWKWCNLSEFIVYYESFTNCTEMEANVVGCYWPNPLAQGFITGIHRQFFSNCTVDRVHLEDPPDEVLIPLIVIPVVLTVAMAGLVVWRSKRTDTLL
Nature of the experiment: scintillation proximity binding assay, hAMY3R membranes. More on the design: expressed in transfected cells; host or cells: BHK tk-ts 13, transient co-transfection; membranes for the SPA, whole cells for the species-specific assays. To be noted: for ratio hCTR/hAMY3R: ratio of binding IC50 values. As for the experimental part: as §1, §2, §3, §4, §5, §6, §7, §8, §9, §10, §11
AMY3R Binding Assay. The binding assay was performed using SPA beads (RPNQ0001) from PerkinElmer and cell membranes containing either the hAMY3R or rAMY3R. BHK tk-ts 13 cells were […]
and cultured as described above. Membranes were prepared in the following way: the cells were rinsed with PBS and incubated with Versene for approximately 5 min before harvesting. The cells were flushed with PBS and the cell-suspension was centrifuged for 5 min at 1000 rpm. Cells were homogenized (Ultra Turrax) in a buffer containing 20 mM Na-HEPES and 10 mM EDTA (pH 7.4), and […]
The resulting pellet was re-suspended, homogenized, and
7.4, buffer 2). The resulting pellet was re-suspended in buffer 2 and protein concentration was measured (BCA protein assay, Pierce). The homogenate was kept cold during the whole procedure.
The membranes were stored at –80 °C until use.
Membranes were mixed with SPA beads in a 1:1 ratio. The final concentration of SPA beads was 0.05 mg/well. Test compounds were dissolved in DMSO and further diluted in assay buffer (50 mM […]
rAMY (NEX448 PerkinElmer) was dissolved in assay buffer and added to the Optiplate at a final

Setting [4] is: SPA binding assay, Tables S13 and S15.
Setting [5] is: SPA binding assay, Tables S13 and S15, read-out: rCTR pIC50 (converted).
Setting [6] is: SPA, BHK cell membranes, 125I-Calcitonin 75 pM, 120 min 25 °C, read-out: rCTR IC50.
The mark [7] stands for this setting: Tables S12 and S14, read-out: hCTR pEC50 (converted).
Setting [8] is: BHK cells stably expressing hCTR and CRE-luciferase, 3 h, 37 °C, 10% FBS, read-out: hCTR EC50.
Setting [9] is: SPA binding assay, Tables S13 and S15, read-out: hAMY3R pIC50 (converted).
The mark [10] stands for this setting: SPA, BHK cell membranes, 125I-rat amylin, 120 min 25 °C, read-out: hAMY3R IC50.

In the case of `CC[C@H](C)[C@H](NC(=O)[C@H](C)NC(=O)CNC(=O)[C@H](Cc1ccccc1)NC(=O)[C@H](CC(N)=O)NC(=O)[C@@H]1CCCN1C(=O)[C@H](CO)NC(=O)[C@H](CO)NC(=O)[C@H](Cc1c[nH]cn1)NC(=O)[C@H](CCCNC(=N)N)NC(=O)[C@H](CC(C)C)NC(=O)[C@H](Cc1ccccc1)NC(=O)[C@H](CC(N)=O)NC(=O)[C@H](C)NC(=O)[C@H](CC(C)C)NC(=O)[C@H](CCCNC(=N)N)NC(=O)[C@H](CCC(N)=O)NC(=O)[C@@H](NC(=O)[C@H](C)NC(=O)[C@@H]1CSSC[C@H](NC(=O)[C@H](CCCNC(=N)N)NC(=O)CNC(=O)CC[C@H](NC(=O)CCCCCCCCCCCCCCCCCCC(=O)O)C(=O)O)C(=O)N[C@@H](CC(N)=O)C(=O)N[C@@H]([C@@H](C)O)C(=O)N[C@@H](C)C(=O)N[C@@H]([C@@H](C)O)C(=O)N1)[C@@H](C)O)C(=O)N1CCC[C@H]1C(=O)N[C@@H](CO)C(=O)N[C@@H](CO)C(=O)N[C@H](C(=O)N[C@@H](CC(N)=O)C(=O)N[C@H](C(=O)NCC(=O)N[C@@H](CO)C(=O)N[C@@H](Cc1c[nH]cn1)C(=O)N[C@H](C(=O)N[C@@H](Cc1ccc(O)cc1)C(N)=O)[C@@H](C)O)C(C)C)[C@@H](C)O` [Peptide 19] ({C20 diacid-γGlu}-GRCNTATCATQRLANFLRHSSPNFGAIPSSTNVGSHTY-NH2; disulfide 3-8), the “rCTR pIC50” value in experiment [1] (setting [4]) is 7.77. Also, the “hCTR pEC50” value in experiment [2] (Tables S12 and S14) is recorded as 8.88. For the same compound, the “hAMY3R pIC50” value in experiment [3] (setting [4]) is 9.46. Also, the “ratio hCTR/hAMY3R” value in experiment [3] is recorded as 45.
Regarding `CC[C@H](C)[C@H](NC(=O)[C@@H]1CCCN1C(=O)CNC(=O)[C@H](Cc1ccccc1)NC(=O)[C@H](CC(N)=O)NC(=O)[C@@H]1CCCN1C(=O)[C@H](CO)NC(=O)[C@H](CO)NC(=O)[C@H](Cc1c[nH]cn1)NC(=O)[C@H](CCCNC(=N)N)NC(=O)[C@H](CC(C)C)NC(=O)[C@H](Cc1ccccc1)NC(=O)[C@H](CC(=O)O)NC(=O)[C@H](C)NC(=O)[C@H](CC(C)C)NC(=O)[C@H](CCCNC(=N)N)NC(=O)[C@H](CCC(N)=O)NC(=O)[C@@H](NC(=O)[C@H](C)NC(=O)[C@@H]1CSSC[C@H](NC(=O)[C@@H](N)CCCCNC(=O)CC[C@H](NC(=O)CC[C@H](NC(=O)CCCCCCCCCCCCCCCCCCC(=O)O)C(=O)O)C(=O)O)C(=O)N[C@@H](CC(N)=O)C(=O)N[C@@H]([C@@H](C)O)C(=O)N[C@@H](C)C(=O)N[C@@H]([C@@H](C)O)C(=O)N1)[C@@H](C)O)C(=O)N[C@@H](CC(C)C)C(=O)N[C@@H](CO)C(=O)N[C@@H](CO)C(=O)N[C@H](C(=O)N[C@@H](CC(N)=O)C(=O)N[C@H](C(=O)NCC(=O)N[C@@H](CO)C(=O)N[C@@H](CC(=O)O)C(=O)N[C@H](C(=O)N[C@@H](Cc1ccc(O)cc1)C(N)=O)[C@@H](C)O)C(C)C)[C@@H](C)O` [Peptide 3] (H-K([γGlu-γGlu-C20 diacid])CNTATCATQRLADFLRHSSPNFGPILSSTNVGSDTY-NH2; disulfide 2-7), the IC50 was 355 nM in experiment [1] (setting [5]), 356 nM in experiment [1] (setting [6]), 5.13 nM in experiment [3] (setting [9]) and 5.09 nM in experiment [3] (setting [10]). For the same compound, the figures for the EC50 in experiment [2] (setting [7]) and in experiment [2] (setting [8]) were 3.02 nM and 3 nM, respectively. Moreover, in experiment [3], the “ratio hCTR/hAMY3R” value is 14.
For `CC(C)C[C@H](NC(=O)[C@H](CCCNC(=N)N)NC(=O)[C@H](CCC(N)=O)NC(=O)[C@@H](NC(=O)[C@H](C)NC(=O)[C@@H]1CSSC[C@H](NC(=O)[C@@H](N)CCCCNC(=O)CC[C@H](NC(=O)CC[C@H](NC(=O)CCCCCCCCCCCCCCCCCCC(=O)O)C(=O)O)C(=O)O)C(=O)N[C@@H](CC(N)=O)C(=O)N[C@@H]([C@@H](C)O)C(=O)N[C@@H](C)C(=O)N[C@@H]([C@@H](C)O)C(=O)N1)[C@@H](C)O)C(=O)N[C@@H](C)C(=O)N[C@@H](CC(=O)O)C(=O)N[C@@H](Cc1ccccc1)C(=O)N[C@@H](CC(C)C)C(=O)N[C@@H](CCCNC(=N)N)C(=O)N[C@@H](Cc1c[nH]cn1)C(=O)N[C@@H](CO)C(=O)N[C@@H](CO)C(=O)N1CCC[C@H]1C(=O)N[C@@H](CC(N)=O)C(=O)N[C@@H](Cc1ccccc1)C(=O)NCC(=O)N[C@@H](C)C(=O)N1CCC[C@H]1C(=O)N[C@@H](CC(C)C)C(=O)N[C@@H](CO)C(=O)N[C@@H](CO)C(=O)N[C@H](C(=O)N[C@@H](CC(N)=O)C(=O)N[C@H](C(=O)NCC(=O)N[C@@H](CO)C(=O)N[C@@H](CC(=O)O)C(=O)N[C@H](C(=O)N[C@@H](Cc1ccc(O)cc1)C(N)=O)[C@@H](C)O)C(C)C)[C@@H](C)O` [Peptide 5] (H-K([γGlu-γGlu-C20 diacid])CNTATCATQRLADFLRHSSPNFGAPLSSTNVGSDTY-NH2; disulfide 2-7), the IC50 in experiment [1] (setting [5]) is 105 nM; in experiment [1] (setting [6]) it was 106 nM; in experiment [3] (setting [9]), 1.12 nM; in experiment [3] (setting [10]) it was 1.12 nM. Further, the EC50 was 2.57 nM in experiment [2] (setting [7]) and 2.58 nM in experiment [2] (setting [8]). Also, in experiment [3], the “ratio hCTR/hAMY3R” value was 27.
